From patent US20150105252A1, “SUBSTITUTED PYRAZOLES AS HERBICIDES” (E I DU PONT DE NEMOURS AND COMPANY, priority 2013, published 2015)

Key:
foxtail, giant [1] = experiment: Test A postemergence; type: in vivo, Setaria faberii
Outline: (§1)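 Visual injury ratings, 0 = no effect to 100 = complete control, taken about 10 days after treatment against untreated controls. Test chemicals, in a non-phytotoxic surfactant-containing solvent, were sprayed onto soil preemergence or onto one- to two-leaf plants (2–10 cm) postemergence, in loam–sand soil under greenhouse conditions.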

corn [2] = experiment: Test A postemergence; type: in vivo, Zea mays
Outline: as §1

crabgrass, large [3] = experiment: Test A postemergence; type: in vivo, Digitaria sanguinalis
Outline: as §1

pigweed [4] = experiment: Test A postemergence; type: in vivo, Amaranthus retroflexus
Outline: as §1

morningglory [5] = experiment: Test A postemergence; type: in vivo, Ipomoea spp.
Outline: as §1

barnyardgrass [6] = experiment: Test A preemergence; type: in vivo, Echinochloa crus-galli; details: preemergence
Outline: as §1

morningglory [7] = experiment: Test A preemergence; type: in vivo, Ipomoea spp.; details: preemergence
Outline: as §1

barnyardgrass [8] = experiment: Test A postemergence; type: in vivo, Echinochloa crus-galli
Outline: as §1

ducksalad = experiment: Test B flood; type: in vivo, Heteranthera limosa; details: 250 g ai/ha, visual rating on 0 to 100 scale (0 no effect, 100 complete control), 13 to 15 days
Outline: (§2)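 Paddy-water application: seedlings at 2-leaf stage, flood depth 3 cm maintained for the test duration. Evaluation after 13–15 days in the greenhouse by eye relative to controls; 0–100 scale.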

corn [9] = experiment: Test A preemergence; type: in vivo, Zea mays; details: preemergence
Outline: as §1

velvetleaf [10] = experiment: Test A preemergence; type: in vivo, Abutilon theophrasti; details: preemergence
Outline: as §1

wheat [11] = experiment: Test A preemergence; type: in vivo, Triticum aestivum; details: preemergence
Outline: as §1

velvetleaf [12] = experiment: Test A postemergence; type: in vivo, Abutilon theophrasti
Outline: as §1

crabgrass, large [13] = experiment: Test A preemergence; type: in vivo, Digitaria sanguinalis; details: preemergence
Outline: as §1

rice = experiment: Test B flood; type: in vivo, Oryza sativa; details: 250 g ai/ha, visual rating on 0 to 100 scale (0 no effect, 100 complete control), 13 to 15 days
Outline: as §2

sedge, umbrella = experiment: Test B flood; type: in vivo, Cyperus difformis; details: 250 g ai/ha, visual rating on 0 to 100 scale (0 no effect, 100 complete control), 13 to 15 days
Outline: as §2

barnyardgrass [14] = experiment: Test B flood; type: in vivo, Echinochloa crus-galli; details: 250 g ai/ha, visual rating on 0 to 100 scale (0 no effect, 100 complete control), 13 to 15 days
Outline: as §2

pigweed [15] = experiment: Test A preemergence; type: in vivo, Amaranthus retroflexus; details: preemergence
Outline: as §1

foxtail, giant [16] = experiment: Test A preemergence; type: in vivo, Setaria faberii; details: preemergence
Outline: as §1

wheat [17] = experiment: Test A postemergence; type: in vivo, Triticum aestivum
Outline: as §1

[18] = Postemergence, 500 g ai/ha, visual rating after approx. 10 days, 0 to 100 scale (0 no effect, 100 complete control)
[19] = postemergence, 125 g ai/ha, about 10 days, visual rating on 0 to 100 scale (0 no effect, 100 complete control)
[20] = 125 g ai/ha, visual injury, 0 to 100 scale, approx. 10 days
[21] = 500 g ai/ha, visual injury after approx. 10 days, 0 to 100 scale (0 no effect, 100 complete control)
[22] = Postemergence, 500 g ai/ha, 0 to 100 scale (0 no effect, 100 complete control)

SMILES | Foxtail, Giant plant response rating (foxtail, giant [1]; [19]) | Corn plant response rating (corn [2]; [19]) | Crabgrass, Large plant response rating (crabgrass, large [3]; [19]) | Pigweed plant response rating (pigweed [4]; [19]) | Morningglory plant response rating (morningglory [5]; [19]) | Barnyardgrass plant response rating (barnyardgrass [6]; [20]) | Barnyardgrass plant response rating (barnyardgrass [6]; [21]) | Morningglory plant response rating (morningglory [7]; [20]) | Morningglory plant response rating (morningglory [7]; [21]) | Barnyardgrass plant response rating (barnyardgrass [8]; [19]) | Plant response rating, Ducksalad (ducksalad) | Corn plant response rating (corn [9]; [20]) | Corn plant response rating (corn [9]; [21]) | Velvetleaf plant response rating (velvetleaf [10]; [20]) | Velvetleaf plant response rating (velvetleaf [10]; [21]) | Wheat plant response rating (wheat [11]; [20]) | Wheat plant response rating (wheat [11]; [21]) | Velvetleaf plant response rating (velvetleaf [12]; [19]) | Crabgrass, Large plant response rating (crabgrass, large [13]; [20]) | Crabgrass, Large plant response rating (crabgrass, large [13]; [21]) | further results
CCc1cc(-c2ccc(F)cc2)nn1Cc1ccnc(C(F)(F)F)c1 [Compound 111] | 40 | 10 | 30 | 80 | 90 | 10 | 90 | 0 | 30 | 20 | 0 | 0 | 0 | 10 | 30 | 0 | 0 | 40 | 90 | 100 | Foxtail, Giant plant response rating (foxtail, giant [1]; [18]): 100; Corn plant response rating (corn [2]; [18]): 50; Crabgrass, Large plant response rating (crabgrass, large [3]; [18]): 100; Pigweed plant response rating (pigweed [4]; [18]): 100; Morningglory plant response rating (morningglory [5]; [18]): 100; Barnyardgrass plant response rating (barnyardgrass [8]; [18]): 80; Velvetleaf plant response rating (velvetleaf [12]; [18]): 90; Plant response rating, Rice (rice): 20; Plant response rating, Sedge, Umbrella (sedge, umbrella): 90; Plant response rating, Barnyardgrass (barnyardgrass [14]): 15; Pigweed plant response rating (pigweed [15]; [20]): 20; Pigweed plant response rating (pigweed [15]; [21]): 100; Foxtail, Giant plant response rating (foxtail, giant [16]; [20]): 90; Foxtail, Giant plant response rating (foxtail, giant [16]; [21]): 100; Wheat plant response rating (wheat [17]; [18]): 30; Wheat plant response rating (wheat [17]; [19]): 10
CCc1cc(-c2ccc(Br)cc2)nn1Cc1ccnc(C(F)(F)F)c1 [Compound 112] | 10 | 0 | 10 | 30 | 40 | 0 | 10 | 0 | 0 | 0 | 0 | 0 | 0 | 0 | 10 | 0 | 0 | 20 | 70 | 90 | Foxtail, Giant plant response rating (foxtail, giant [1]; [18]): 20; Corn plant response rating (corn [2]; [18]): 30; Crabgrass, Large plant response rating (crabgrass, large [3]; [18]): 20; Pigweed plant response rating (pigweed [4]; [18]): 90; Morningglory plant response rating (morningglory [5]; [18]): 70; Barnyardgrass plant response rating (barnyardgrass [8]; [18]): 20; Velvetleaf plant response rating (velvetleaf [12]; [18]): 40; Plant response rating, Rice (rice): 20; Plant response rating, Sedge, Umbrella (sedge, umbrella): 0; Plant response rating, Barnyardgrass (barnyardgrass [14]): 20; Pigweed plant response rating (pigweed [15]; [20]): 0; Pigweed plant response rating (pigweed [15]; [21]): 50; Foxtail, Giant plant response rating (foxtail, giant [16]; [20]): 70; Foxtail, Giant plant response rating (foxtail, giant [16]; [21]): 80; Wheat plant response rating (wheat [17]; [18]): 40; Wheat plant response rating (wheat [17]; [19]): 10
CCc1cc(-c2ccc(C(F)(F)F)cc2)nn1Cc1nc(C(F)(F)F)nn1C [Compound 115] | 30 | 20 | 50 | 90 | 30 | 20 | 80 | 0 | 40 | 30 | 0 | 0 | 20 | 20 | 20 | 0 | 20 | 60 | 90 | 100 | Foxtail, Giant plant response rating (foxtail, giant [1]; [18]): 80; Corn plant response rating (corn [2]; [18]): 40; Crabgrass, Large plant response rating (crabgrass, large [3]; [18]): 90; Pigweed plant response rating (pigweed [4]; [18]): 100; Morningglory plant response rating (morningglory [5]; [18]): 80; Barnyardgrass plant response rating (barnyardgrass [8]; [18]): 60; Velvetleaf plant response rating (velvetleaf [12]; [18]): 100; Plant response rating, Rice (rice): 20; Plant response rating, Sedge, Umbrella (sedge, umbrella): 80; Plant response rating, Barnyardgrass (barnyardgrass [14]): 0; Pigweed plant response rating (pigweed [15]; [20]): 90; Pigweed plant response rating (pigweed [15]; [21]): 100; Foxtail, Giant plant response rating (foxtail, giant [16]; [20]): 90; Foxtail, Giant plant response rating (foxtail, giant [16]; [21]): 90; Wheat plant response rating (wheat [17]; [18]): 40; Wheat plant response rating (wheat [17]; [19]): 0
CCc1cc(C(=O)NC2CC2)nn1Cc1cc(C(F)(F)F)nn1CC [Compound 118] | 10 | 20 | 40 | 80 | 70 | 40 | 100 | 70 | 100 | 30 | 30 | 0 | 50 | 0 | 80 | 0 | 30 | 50 | 100 | 100 | Foxtail, Giant plant response rating (foxtail, giant [1]; [18]): 70; Corn plant response rating (corn [2]; [18]): 50; Crabgrass, Large plant response rating (crabgrass, large [3]; [18]): 90; Pigweed plant response rating (pigweed [4]; [18]): 100; Morningglory plant response rating (morningglory [5]; [18]): 90; Barnyardgrass plant response rating (barnyardgrass [8]; [18]): 80; Velvetleaf plant response rating (velvetleaf [12]; [18]): 80; Plant response rating, Rice (rice): 0; Plant response rating, Sedge, Umbrella (sedge, umbrella): 85; Plant response rating, Barnyardgrass (barnyardgrass [14]): 0; Pigweed plant response rating (pigweed [15]; [20]): 100; Pigweed plant response rating (pigweed [15]; [21]): 100; Foxtail, Giant plant response rating (foxtail, giant [16]; [20]): 70; Foxtail, Giant plant response rating (foxtail, giant [16]; [21]): 90; Wheat plant response rating (wheat [17]; [18]): 40; Wheat plant response rating (wheat [17]; [19]): 0
CCc1cc(C(=O)NCC(F)(F)F)nn1Cc1cc(C(F)(F)F)nn1CC [Compound 119] | 20 | 0 | 20 | 60 | 90 | 0 | 70 | 20 | 60 | 10 | 40 | 0 | 30 | 0 | 30 | 0 | 20 | 50 | 70 | 100 | Foxtail, Giant plant response rating (foxtail, giant [1]; [22]): 50; Corn plant response rating (corn [2]; [22]): 50; Crabgrass, Large plant response rating (crabgrass, large [3]; [22]): 60; Pigweed plant response rating (pigweed [4]; [22]): 90; Morningglory plant response rating (morningglory [5]; [22]): 100; Barnyardgrass plant response rating (barnyardgrass [8]; [22]): 60; Velvetleaf plant response rating (velvetleaf [12]; [22]): 70; Plant response rating, Rice (rice): 0; Plant response rating, Sedge, Umbrella (sedge, umbrella): 75; Plant response rating, Barnyardgrass (barnyardgrass [14]): 0; Pigweed plant response rating (pigweed [15]; [20]): 80; Pigweed plant response rating (pigweed [15]; [21]): 100; Foxtail, Giant plant response rating (foxtail, giant [16]; [20]): 20; Foxtail, Giant plant response rating (foxtail, giant [16]; [21]): 80; Wheat plant response rating (wheat [17]; [22]): 10; Wheat plant response rating (wheat [17]; [19]): 0
